Counter-ions that a name gives are not always drawn.

Drawing on patent publication US11332459B2 (TEIJIN PHARMA LIMITED, priority 2017, dated 2022), this text covers IC50 for 24 compounds.

The experiment addresses T1, human TRPC6 (Homo sapiens, UniProt Q9Y210).
T1 construct: expressed in transfected cells
T1 sequence (Q9Y210 1-931): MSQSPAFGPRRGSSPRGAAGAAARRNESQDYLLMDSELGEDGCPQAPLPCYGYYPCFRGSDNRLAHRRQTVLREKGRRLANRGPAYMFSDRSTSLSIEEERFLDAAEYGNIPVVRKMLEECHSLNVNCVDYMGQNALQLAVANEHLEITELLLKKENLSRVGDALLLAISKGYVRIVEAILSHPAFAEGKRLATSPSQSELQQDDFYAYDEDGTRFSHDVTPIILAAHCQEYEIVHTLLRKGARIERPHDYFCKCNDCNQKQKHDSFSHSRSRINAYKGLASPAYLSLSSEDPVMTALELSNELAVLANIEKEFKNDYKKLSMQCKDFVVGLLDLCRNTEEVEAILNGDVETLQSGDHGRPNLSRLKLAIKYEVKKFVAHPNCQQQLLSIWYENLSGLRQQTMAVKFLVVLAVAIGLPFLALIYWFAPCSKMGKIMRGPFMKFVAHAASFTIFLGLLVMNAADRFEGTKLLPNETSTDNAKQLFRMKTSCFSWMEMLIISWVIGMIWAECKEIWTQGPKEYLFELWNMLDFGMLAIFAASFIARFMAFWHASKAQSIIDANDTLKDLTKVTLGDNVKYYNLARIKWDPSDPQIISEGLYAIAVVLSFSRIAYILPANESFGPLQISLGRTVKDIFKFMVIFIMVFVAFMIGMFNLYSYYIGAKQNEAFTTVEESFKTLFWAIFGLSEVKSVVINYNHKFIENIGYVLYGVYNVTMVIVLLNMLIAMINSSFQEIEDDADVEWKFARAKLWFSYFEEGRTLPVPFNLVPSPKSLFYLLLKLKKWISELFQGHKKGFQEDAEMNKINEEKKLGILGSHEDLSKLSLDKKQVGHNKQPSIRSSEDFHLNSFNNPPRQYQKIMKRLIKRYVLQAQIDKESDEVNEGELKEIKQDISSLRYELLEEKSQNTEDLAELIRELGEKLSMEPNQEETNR
Kind of experiment: TRPC6 calcium flux assay (FLIPR, OAG-stimulated calcium influx). The note with it: HEK293 cells stably transfected with human TRPC6, read-out: hTRPC6 Potency. The format is cell-based. The gist of the method:
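IC50 derived by plotting background-corrected peak fluorescence (180 s window, normalized to OAG-triggered signal vs buffer) against dose. Stable human TRPC6 HEK293 line was dye-loaded, exposed to compound 25 min, then challenged with 50 uM final OAG in 2 mM Ca2+ HEPES buffer pH 7.2, 0.5% DMSO.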
Background: Calcium flux is commonly read through the fluorescence of an indicator in the cells.
For the compound `C[C@H](c1ccc(OC(F)(F)F)cc1)n1c(N2CC[C@@H](F)[C@H](N)C2)nc2cc(F)c(F)cc21` [Example 337, (3R,4R)-1-(5,6-difluoro-1-((1R)-1-(4-(trifluoromethoxy)phenyl)ethyl)-1H-benzimidazol-2-yl)-4-fluoro-3-piperidinamine], the IC50 was more than 3750 nM.

Turning to `N#Cc1ccc(Cn2c(N3CC[C@@H](F)[C@H](N)C3)nc3c(C#N)cccc32)nc1` [Example 11, 2-((3R,4R)-3-amino-4-fluoropiperidin-1-yl)-1-((5-cyanopyridin-2-yl)methyl)-1H-benzo[d]imidazole-4-carbonitrile], the IC50 worked out at 1.79 nM.

Regarding `N#Cc1ccc(Cn2c(N3C[C@@H]4NCCO[C@H]4C3)nc3ccccc32)nc1` [Example 101, 6-((2-((4aS,7aS)-hexahydropyrrolo[3,4-b][1,4]oxazin-6(2H)-yl)-1H-benzo[d]imidazol-1-yl)methyl)nicotinonitrile], the IC50 is more than 3750 nM. As to `N#Cc1ccc(Cn2c(N3C[C@@H]4NCCO[C@@H]4C3)nc3ccccc32)nc1` [Example 99, 6-((2-((4aS,7aR)-hexahydropyrrolo[3,4-b][1,4]oxazin-6(2H)-yl)-1H-benzo[d]imidazol-1-yl)methyl)nicotinonitrile hydrochloride], the IC50 was more than 3750 nM.

Take `Cc1cc(Cn2c(N3CC[C@@H](F)[C@H](N)C3)nc3cc(F)c(F)cc32)ccc1C#N` (stereo in doubt) [Example 345, 4-((2-((3R,4R)-3-amino-4-fluoro-1-piperidinyl)-5,6-difluoro-1H-benzimidazol-1-yl)methyl)-2-methylbenzonitrile]: the IC50 is 1.5 nM. For `C[C@@H](c1ccc(C#N)cc1)n1c(N2CC[C@H](F)[C@H](N)C2)nc2ccccc21` [Example 318, 4-((S)-1-(2-((3R,4S)-3-amino-4-fluoropiperidin-1-yl)-1H-benzo[d]imidazol-1-yl)ethyl)benzonitrile hydrochloride], the IC50 was determined as 37.7 nM.

Take `N[C@@H]1CCCN(c2nc3ccccc3n2Cc2cc(-c3cccc(Cl)c3)no2)C1` [Example 392, (R)-1-(1-((3-(3-chlorophenyl)isoxazol-5-yl)methyl)-1H-benzo[d]imidazol-2-yl)piperidin-3-amine]: the IC50 is 2240 nM.

As to `CCN(CCOC)C(=O)Cn1c(N2CC[C@@H](F)[C@H](N)C2)nc2ccc(F)cc21` [Example 671, 2-(2-((3R,4R)-3-amino-4-fluoropiperidin-1-yl)-6-fluoro-1H-benzo[d]imidazol-1-yl)-N-ethyl-N-(2-methoxyethyl)acetamide], the IC50 was found to be 1430 nM. In the case of “(3R,4R)-4-fluoro-1-(6- fluoro-1-((4- methoxypyridin-2- yl)methyl)-1H- benzo[d]imidazol-2- yl)piperidin-3-amine [Example 517]”, the IC50 was determined as 319 nM.

Regarding `N[C@@H]1CN(c2nc3cc(F)c(F)cc3n2C2CCN(c3ccc(Cl)cc3)C2=O)CC[C@H]1F` (mixture of isomers) [Example 240, 3-(2-((3R,4R)-3-amino-4-fluoropiperidin-1-yl)-5,6-difluoro-1H-benzo[d]imidazol-1-yl)-1-(4-chlorophenyl)pyrrolidin-2-one], the IC50 came out at 10.7 nM. Then `CC(C)C1CN(C(=O)Cn2c(N3CC[C@@H](F)[C@H](N)C3)nc3cc(F)c(F)cc32)C1` [Example 429, 2-(2-((3R,4R)-3-amino-4-fluoropiperidin-1-yl)-5,6-difluoro-1H-benzo[d]imidazol-1-yl)-1-(3-isopropylazetidin-1-yl)ethanone], with more than 3750 nM. Then `N#Cc1ccc(Cn2c(N3CC[C@H](F)[C@H](N)C3)nc3c(Cl)cccc32)cc1` [Example 409], with 1.04 nM; and `N#Cc1ccc(Cn2c(N3CCC[C@H](N)C3)nc3ccccc32)nc1` [Example 70, (S)-6-((2-(3-aminopiperidin-1-yl)-1H-benzo[d]imidazol-1-yl)methyl)nicotinonitrile], with 2.32 nM; and `N#Cc1ccc2c(c1)nc(N1CC[C@@H](F)[C@H](N)C1)n2Cc1ccc(F)cn1` [Example 191, 2-((3R,4R)-3-amino-4-fluoropiperidin-1-yl)-1-((5-fluoropyridin-2-yl)methyl)-1H-benzo[d]imidazole-5-carbonitrile], with 140 nM. Then `Cc1cnc(Cn2c(N3CC[C@@H](F)[C@H](N)C3)nc3cc(F)c(F)cc32)o1` [Example 567, (3R,4R)-1-(5,6-difluoro-1-((5-methyloxazol-2-yl)methyl)-1H-benzo[d]imidazol-2-yl)-4-fluoropiperidin-3-amine], with 39.8 nM; and `COc1ccc2nc(N3CCC(F)(F)[C@H](N)C3)n(Cc3ccc(C#N)cn3)c2c1` [Example 138, 6-((2-((3R)-3-amino-4,4-difluoro-1-piperidinyl)-6-methoxy-1H-benzimidazol-1-yl)methyl)-3-pyridinecarbonitrile], with 0.52 nM; and `N#Cc1ccc(Cn2c(N3CCC(F)(F)[C@H](N)C3)nc3ccc(Cl)cc32)nc1` [Example 12, (R)-6-((2-(3-amino-4,4-difluoropiperidin-1-yl)-6-chloro-1H-benzo[d]imidazol-1-yl)methyl)nicotinonitrile], with 0.285 nM. As to `CC(c1ccccn1)N(C)C(=O)Cn1c(N2CC[C@@H](F)[C@H](N)C2)nc2cc(F)c(F)cc21` (stereo partly drawn) [Example 638, 2-(2-((3R,4R)-3-amino-4-fluoropiperidin-1-yl)-5,6-difluoro-1H-benzo[d]imidazol-1-yl)-N-methyi-N-((S)-1-(pyridin-2-yl)ethyl)acetamide], the IC50 was determined as 425 nM.

`N#CCCN(CC1CCOC1)C(=O)Cn1c(N2CC[C@@H](F)[C@H](N)C2)nc2cc(F)c(F)cc21` (stereo partly drawn) [Example 643, 2-(2-((3R,4R)-3-amino-4-fluoropiperidin-1-yl)-5,6-difluoro-1H-benzo[d]imidazol-1-yl)-N-(2-cyanoethyl)-N-((tetrahydrofuran-3-yl)methyl)acetamide]: the IC50 stood at 1820 nM.

On to `N#Cc1cnc(Cn2c(N3CC[C@@H](F)[C@H](N)C3)nc3cc(F)cc(F)c32)cn1` [Example 252, 5-((2-((3R,4R)-3-amino-4-fluoro-1-piperidinyl)-5,7-difluoro-1H-benzimidazol-1-yl)methyl)-2-pyrazinecarbonitrile], for which the IC50 was 8.76 nM. Then `N[C@@H]1CN(c2nc3cc(F)c(F)cc3n2CC(=O)N2CCN(c3cnccn3)CC2)CC[C@H]1F` [Example 511, 2-(2-((3R,4R)-3-amino-4-fluoropiperidin-1-yl)-5,6-difluoro-1H-benzo[d]imidazol-1-yl)-1-(4-(pyrazin-2-yl)piperazin-1-yl)ethan-1-one], with 158 nM. Then `COc1ccc2nc(N3CCC[C@H](N)C3)n(Cc3ccc(C#N)cc3)c2n1` [Example 404, (S)-4-((2-(3-aminopiperidin-1-yl)-5-methoxy-3H-imidazo[4,5-b]pyridin-3-yl)methyl)benzonitrile hydrochloride], with 1.67 nM; and `COCCN(C)C(=O)Cn1c(N2CC[C@@H](F)[C@H](N)C2)nc2ccc(F)cc21` [Example 663, 2-(2-((3R,4R)-3-amino-4-fluoropiperidin-1-yl)-6-fluoro-1H-benzo[d]imidazol-1-yl)-N-(2-methoxyethyl)-N-methylacetamide], with 294 nM. On to `N[C@@H]1CN(c2nc3ccccc3n2Cc2ccc(F)cn2)CC[C@H]1F` [Example 189, (3R,4R)-4-fluoro-1-(1-((5-fluoropyridin-2-yl)methyl)-1H-benzo[d]imidazol-2-yl)piperidin-3-amine], for which the IC50 came out at 3.59 nM.
